# Like-named read-outs stand apart in the source and are kept apart here.
# Tests used:
# [1] = tested on: PARP cleavage in LNCaP cells; experiment: Western blot analysis of PARP cleavage in LNCaP cells; assay type: cell-based, Human; details: 48 h treatment
# Procedure: Human metastatic prostate cancer cells, LNCaP, were obtained from ATCC (Manassas, Va., USA). Cells were grown in RPMI-1640 medium supplemented with 2mM glutamine, 10% FBS, 100 U/mL penicillin, and 100 μg/mL streptomycin. LNCaP cells were maintained in a humidified atmosphere of 5% CO2 at 37° C. in T-75 flasks and were subcultured when confluent. Experiments were conducted using cells with passage numbers ranging from 5-20.
# Western blotting is a widely used analytical technique for detection of specific proteins separated from one another, according to their size, by gel electrophoresis. Application of an electric current induces proteins on the gel to move on to the membrane (nitrocellulose or PVDF) placed next to it. Proteins on the gel get transferred on to the membrane which is subsequently stained with the antibody. Once detected, the target protein will be visualized as a band on a blotting membrane, X-ray film, or an imaging system. […]
# After maintaining constant agitation at 4° C. for 30 minutes, lysates were collected in microcentrifuge tubes and centrifuged at 12,000 rpm at 4° C. for 20 minutes. […] Protein concentration was determined using the Pierce® BCA protein assay kit. […] Western blot images are representative of at least 3 independent experiments, while quantification data represent mean±S.E.M. of n>3 experiments.
# PC-3 cells = experiment: XTT cell proliferation (cell viability) assay in PC-3 cells; assay type: cell-based; details: Homo sapiens, mean±S.E.M., read-out: IC50 (anti-proliferative activity, XTT)
# Procedure: Cell Line and Culture Conditions • Human metastatic, androgen insensitive prostate cancer cells, PC-3, were obtained from ATCC (Manassas, Va., USA). Cells were grown in F-12K medium supplemented with 2 mM glutamine, 10% FBS, 100 U/mL penicillin, and 100 μg/mL streptomycin. PC-3 cells were maintained in a humidified atmosphere of 5% CO2 at 37° C. in T-75 flasks and were subcultured when confluent.
# The anti-proliferative effect of carvacrol was assessed in PC-3 cells using the XTT cell proliferation assay. This assay is a colorimetric assay that is used to measure cell growth and drug sensitivity in tumor cell lines by measuring the internal environment of the proliferating cell, which is more reduced than that of non-proliferating cells. In this assay, the second generation tetrazolium dye, XTT (2,3-bis(2-methoxy-4-nitro-5-sulfophenyl)-5-[(phenylamino)-carbonyl]-2H tetrazolium hydroxide), is reduced to a soluble, brightly orange colored formazan derivative. To improve the sensitivity of XTT assay, PMS (N-methyl dibenzopyrazine methyl sulfate), an intermediate electron carrier is used. This color change is accomplished by breaking apart the positively charged quaternary tetrazole ring. An expansion in the number of viable cells results in an increase in the overall activity of mitochondrial dehydrogenases in the sample. […]
# PC-3 cells at a density of 10^4 cells/well were seeded into flat-bottom, 96-well microtiter plates (100 μL/well) and allowed to attach and grow for 24 h. […] After incubation, an orange colored formazan product was formed and the absorbance was measured at 475 nm using BioTek microplate reader. […] Cell viability of the drug-treated cells was calculated as a fraction of solvent control and the anti-proliferative activity of carvacrol was expressed in terms of IC50 values. IC50 values were calculated using GraphPad Prism 4 (Graph Pad Software Inc., Calif., USA), and expressed as the means±S.E.M. of n≧3 experiments (each in triplicate).
structure (smiles),measurement,setting,value
Cc1ccc(C(C)C)cc1O [Carvacrol],cleavage of PARP (Western blot),[1],demonstrated cleavage of PARP
same,IC50,PC-3 cells; 24 hr treatment,2250 ± 79.8 µM
same,IC50,PC-3 cells; 48 hr treatment,1400 ± 98.2 µM
same,IC50,PC-3 cells; 96 hr treatment,1010 ± 63.5 µM
